Source: patent publication US8658685B2, “Methods for treatment of kallikrein-related disorders” (Activesite Pharmaceuticals, Inc., priority 2008, dated 2014)

Columns and labels:
[1] = biological target: purified human plasma kallikrein (PK) (Homo sapiens, UniProt P03952); assay: Inhibitor profile of ASP-440: plasma kallikrein; type: biochemical
Factor XIIa = biological target: T1, Factor XIIa (Homo sapiens, UniProt P00748); assay: Inhibitor profile of ASP-440: Factor XIIa; type: biochemical
T1 sequence (P00748 373-615 limits assumed): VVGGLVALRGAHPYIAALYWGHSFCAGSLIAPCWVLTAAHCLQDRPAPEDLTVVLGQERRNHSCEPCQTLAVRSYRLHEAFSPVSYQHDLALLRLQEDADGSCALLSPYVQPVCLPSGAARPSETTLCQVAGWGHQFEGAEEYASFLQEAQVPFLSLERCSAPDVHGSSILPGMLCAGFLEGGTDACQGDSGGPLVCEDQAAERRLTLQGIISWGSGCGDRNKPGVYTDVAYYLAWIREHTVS

Factor XIa = Factor XIa (Homo sapiens, UniProt P03951); assay: Inhibitor profile of ASP-440: Factor XIa; type: biochemical
Factor IXa = Factor IXa (Homo sapiens, UniProt P00740); assay: Inhibitor profile of ASP-440: Factor IXa; type: biochemical
[2] = biological target: Tissue Factor-Factor VIIa (Homo sapiens, UniProt P08709); assay: Inhibitor profile of ASP-440: Tissue Factor-Factor VIIa; type: biochemical
Factor Xa = Factor Xa (Homo sapiens, UniProt P00742); assay: Inhibitor profile of ASP-440: Factor Xa; type: biochemical
Thrombin = Thrombin (Homo sapiens, UniProt P00734); assay: Inhibitor profile of ASP-440: Thrombin; type: biochemical
Plasmin = Plasmin (Homo sapiens, UniProt P00747); assay: Inhibitor profile of ASP-440: Plasmin; type: biochemical
[3] = biological target: Porcine Pancreatic Kallikrein (Sus scrofa, UniProt P00752); assay: Inhibitor profile of ASP-440: Porcine Pancreatic Kallikrein; type: biochemical
[4] = biological target: T2, endogenous PK in human plasma (Homo sapiens, UniProt P03952); assay: Inhibition of endogenous PK in human plasma; type: biochemical; details: read-out: Kiapp
T2 construct: from tissue; host or cells: human plasma

[5] = biological target: T3, endogenous PK in rat plasma (Rattus norvegicus, UniProt P14272); assay: Inhibition of endogenous PK in rat plasma; type: biochemical; details: read-out: Kiapp
T3 construct: from tissue; host or cells: rat plasma

[6] = system: intrinsic coagulation pathway; assay: Plasma coagulation time, activation with Actin FS reagent; type: biochemical; details: at 10 μM; plasma activated with Actin FS reagent
[7] = system: recombinant tissue factor; assay: Plasma coagulation time, activation with Innovin reagent; type: biochemical; details: plasma activated by Innovin reagent; concentrations up to 30 μM
[8] = system: AngII-induced retinal vascular permeability; assay: AngII-induced retinal vascular permeability in rats; type: in vivo, rat; details: AngII and ASP-440 via 2 Alzet pumps for 7 days; Evan's blue dye method
Protocol: Rats were implanted with a single subcutaneous osmotic pump containing Ang II or two pumps containing AngII and ASP-465, as indicated. RVP was measured using vitreous fluorophotometry after 3 days.
RVP was measured using Evan's blue dye method after 7 days.
We examined the effect of the kallikrein inhibitor ASP-465 on RVP induced by angiotensin II (AngII).

[9] = system: diabetes-induced retinal vascular permeability; assay: Diabetes-induced retinal vascular permeability in rats; type: in vivo, rat; details: STZ-induced diabetes, 28 days; subcutaneous osmotic pump; Evan's blue dye method
astrocytes [10] = assay: Plasma kallikrein-induced ERK phosphorylation in astrocytes; type: cell-based; details: astrocytes exposed to plasma kallikrein
Description: (§1) We have also studied the effects of plasma kallikrein pathway activation on astrocytes. […] Exposure of astrocytes to plasma kallikrein potently stimulated ERK phosphorylation, and this action of kallikrein on astrocytes is not affected by B2-R antagonism (Hoe140). The effect of kallikrein on astrocytes was blocked by leupeptin, a protease inhibitor and C1-INH (data not shown). […] This is in contrast to the bradykinin effect, which is rapid and transient (data not shown). Plasma kallikrein's effect on ERK phosphorylation in astrocytes is dose dependent, reaching a maximal effect at 100 nM kallikrein (data not shown). […] In addition, plasma kallikrein binding to astrocytes was blocked by AS-440 (FIG. 9B) and C1-INH (data not shown).

astrocytes [11] = assay: Plasma kallikrein binding to astrocytes; type: cell-based
Description: as §1

blood-induced hematoma = assay: Hematoma after intracerebral infusion of autologous blood in diabetic rats; type: in vivo, Sprague-Dawley rats; details: systemic treatment, 48 h after intracerebral infusion of autologous blood
Protocol: We have compared the response to intracerebral infusion of blood in Sprague-Dawley rats with 1 mo of STZ-induced diabetes with age matched non-diabetic control rats. Fifty μL of autologous whole blood was collected from the tail vein and immediately infused 1 mm anterior, 4 mm lateral and 6 mm in depth to the bregma using a 30 gauge needle at 20 μL per minute. The infusion needle was removed 10 min after injection and the burr hole was sealed with bone wax. Forty-eight hours after intracerebral injection, the animals were perfused with saline and surface hematoma area was examined by measurement of hematoma area relative to total hemisphere area.

[12] = system: plasma kallikrein-induced hematoma; assay: Hematoma after intracerebral injection of purified activated plasma kallikrein in diabetic rats; type: in vivo, rat; details: 2 hrs following plasma kallikrein injection, 24 hrs pretreatment via subcutaneous osmotic pump
Description: The increased response of diabetic rats to the model of intracerebral hemorrhage described above could be due to factors within the blood or due to an increased response in the neurovascular tissue. To evaluate the latter, we performed intracerebral injections of purified activated plasma kallikrein in rats with 1 mo of STZ-induced diabetes or age-matched non-diabetic controls. The contralateral hemisphere was subjected to an equivalent injection with saline vehicle. […]

[13] = system: ischemia-induced cerebral vascular permeability and infarct; assay: Middle cerebral artery occlusion (MCAO) in rats with 4 weeks of STZ-induced diabetes; type: in vivo, rat; details: vs diabetic rats receiving vehicle
Protocol: Rats were implanted with a single subcutaneous osmotic pump containing ASP-440, as indicated. Cerebral vascular permeability was measured using Evan's blue dye method 2 hours after occlusion.
Infarct area was measured using Triphenyltetrazolium chloride stain after 24 hours of permanent occlusion.
The effect of diabetes on cerebral vascular permeability induced by ischemia was examined in rats subjected to middle cerebral artery occlusion (MCAO). […] Cerebral vascular permeability following MCAO was increased in the diabetic rats compared with nondiabetic rats (FIG. 14). […] MCAO-induced infarct area is increased in rats with 4 weeks of diabetes compare with nondiabetic rats (FIG. 15).

Sequence of Factor IXa (P00740 227-461 limits assumed): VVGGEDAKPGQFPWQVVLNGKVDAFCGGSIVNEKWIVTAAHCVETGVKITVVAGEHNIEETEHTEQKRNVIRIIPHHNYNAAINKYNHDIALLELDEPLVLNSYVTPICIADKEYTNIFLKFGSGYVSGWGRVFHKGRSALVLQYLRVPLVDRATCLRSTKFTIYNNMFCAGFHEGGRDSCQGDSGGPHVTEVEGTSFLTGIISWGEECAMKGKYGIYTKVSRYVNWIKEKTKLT
Sequence of Factor IXa (P00740 47-191 partner limits assumed): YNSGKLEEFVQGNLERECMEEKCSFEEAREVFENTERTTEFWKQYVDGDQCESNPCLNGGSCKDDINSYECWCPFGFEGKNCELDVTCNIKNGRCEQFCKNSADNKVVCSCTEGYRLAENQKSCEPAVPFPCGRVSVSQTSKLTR
Sequence of Porcine Pancreatic Kallikrein (P00752 8-246): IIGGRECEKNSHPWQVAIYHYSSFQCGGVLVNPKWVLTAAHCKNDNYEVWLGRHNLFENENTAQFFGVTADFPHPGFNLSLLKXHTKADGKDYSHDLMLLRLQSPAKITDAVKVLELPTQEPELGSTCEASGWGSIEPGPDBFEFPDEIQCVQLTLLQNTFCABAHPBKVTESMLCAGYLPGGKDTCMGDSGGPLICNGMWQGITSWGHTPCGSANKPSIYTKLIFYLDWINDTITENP
Sequence of purified human plasma kallikrein (PK) (P03952 20-638): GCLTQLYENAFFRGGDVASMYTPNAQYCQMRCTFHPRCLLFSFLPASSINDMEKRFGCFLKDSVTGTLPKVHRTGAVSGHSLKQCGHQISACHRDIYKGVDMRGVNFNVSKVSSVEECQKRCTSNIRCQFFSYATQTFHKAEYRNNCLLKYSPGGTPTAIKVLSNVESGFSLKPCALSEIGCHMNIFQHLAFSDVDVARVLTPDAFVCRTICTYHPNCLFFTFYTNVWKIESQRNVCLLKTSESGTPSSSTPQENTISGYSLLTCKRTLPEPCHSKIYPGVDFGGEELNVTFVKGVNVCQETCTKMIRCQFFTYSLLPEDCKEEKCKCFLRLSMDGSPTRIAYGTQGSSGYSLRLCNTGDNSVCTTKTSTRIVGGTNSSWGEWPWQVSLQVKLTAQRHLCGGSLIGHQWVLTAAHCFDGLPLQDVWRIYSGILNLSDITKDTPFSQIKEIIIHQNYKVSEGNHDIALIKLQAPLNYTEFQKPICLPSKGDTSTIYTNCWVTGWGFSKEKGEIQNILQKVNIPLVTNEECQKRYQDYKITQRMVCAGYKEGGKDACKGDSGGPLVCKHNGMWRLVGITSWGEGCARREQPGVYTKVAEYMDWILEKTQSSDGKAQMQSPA
Sequence of Plasmin (P00747 581-810 limits assumed, species assumed): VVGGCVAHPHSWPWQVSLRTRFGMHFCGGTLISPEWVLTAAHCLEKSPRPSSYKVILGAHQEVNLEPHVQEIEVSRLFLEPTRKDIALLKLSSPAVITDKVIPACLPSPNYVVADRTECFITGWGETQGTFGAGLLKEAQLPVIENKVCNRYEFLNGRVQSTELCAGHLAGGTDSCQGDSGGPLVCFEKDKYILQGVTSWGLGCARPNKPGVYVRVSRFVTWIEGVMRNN
Sequence of Plasmin (P00747 97-580 partner limits assumed, species assumed): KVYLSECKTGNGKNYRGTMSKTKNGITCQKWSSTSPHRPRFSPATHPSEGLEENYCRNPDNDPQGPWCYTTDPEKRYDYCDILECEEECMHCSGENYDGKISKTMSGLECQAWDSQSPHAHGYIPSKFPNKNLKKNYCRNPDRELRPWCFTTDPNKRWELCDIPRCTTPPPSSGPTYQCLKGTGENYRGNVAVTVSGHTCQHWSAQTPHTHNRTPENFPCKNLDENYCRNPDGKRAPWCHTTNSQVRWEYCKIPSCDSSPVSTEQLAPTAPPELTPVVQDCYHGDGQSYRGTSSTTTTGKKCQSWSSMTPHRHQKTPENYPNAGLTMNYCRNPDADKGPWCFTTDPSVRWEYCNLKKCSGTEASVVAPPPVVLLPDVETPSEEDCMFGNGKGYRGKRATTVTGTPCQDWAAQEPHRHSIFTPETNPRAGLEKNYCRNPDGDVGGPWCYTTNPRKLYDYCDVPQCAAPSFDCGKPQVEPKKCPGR
Sequence of Factor Xa (P00742 235-488 limits assumed): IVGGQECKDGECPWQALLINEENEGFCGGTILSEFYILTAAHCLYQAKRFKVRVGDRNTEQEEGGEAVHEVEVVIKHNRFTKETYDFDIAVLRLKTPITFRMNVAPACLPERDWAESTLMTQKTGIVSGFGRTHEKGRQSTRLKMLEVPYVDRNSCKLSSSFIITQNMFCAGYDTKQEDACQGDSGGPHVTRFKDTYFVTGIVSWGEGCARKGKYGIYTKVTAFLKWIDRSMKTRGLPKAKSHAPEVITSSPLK
Sequence of Factor Xa (P00742 41-179 partner limits assumed): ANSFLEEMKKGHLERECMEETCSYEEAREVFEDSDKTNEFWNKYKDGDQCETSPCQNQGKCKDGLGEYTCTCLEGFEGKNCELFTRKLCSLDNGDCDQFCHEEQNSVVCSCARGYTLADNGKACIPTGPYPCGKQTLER
Sequence of Factor XIa (P03951 388-625 limits assumed): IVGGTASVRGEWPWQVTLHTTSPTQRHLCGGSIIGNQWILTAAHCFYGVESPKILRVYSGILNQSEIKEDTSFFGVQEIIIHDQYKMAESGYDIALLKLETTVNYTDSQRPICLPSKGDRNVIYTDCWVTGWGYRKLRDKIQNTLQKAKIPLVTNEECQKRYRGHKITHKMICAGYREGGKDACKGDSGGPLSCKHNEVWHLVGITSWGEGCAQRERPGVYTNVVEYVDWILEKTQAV
Sequence of Factor XIa (P03951 19-387 partner limits assumed): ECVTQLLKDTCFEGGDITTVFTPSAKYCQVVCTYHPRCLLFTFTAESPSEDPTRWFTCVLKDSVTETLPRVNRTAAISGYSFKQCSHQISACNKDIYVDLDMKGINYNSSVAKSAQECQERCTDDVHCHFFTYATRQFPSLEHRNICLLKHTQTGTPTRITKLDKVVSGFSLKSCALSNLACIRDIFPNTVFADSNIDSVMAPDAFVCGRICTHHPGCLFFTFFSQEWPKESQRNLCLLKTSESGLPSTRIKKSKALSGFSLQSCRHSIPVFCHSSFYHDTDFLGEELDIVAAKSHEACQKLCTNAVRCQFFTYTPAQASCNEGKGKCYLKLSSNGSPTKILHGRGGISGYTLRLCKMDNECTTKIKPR
Sequence of Tissue Factor-Factor VIIa (P08709 213-466 limits assumed): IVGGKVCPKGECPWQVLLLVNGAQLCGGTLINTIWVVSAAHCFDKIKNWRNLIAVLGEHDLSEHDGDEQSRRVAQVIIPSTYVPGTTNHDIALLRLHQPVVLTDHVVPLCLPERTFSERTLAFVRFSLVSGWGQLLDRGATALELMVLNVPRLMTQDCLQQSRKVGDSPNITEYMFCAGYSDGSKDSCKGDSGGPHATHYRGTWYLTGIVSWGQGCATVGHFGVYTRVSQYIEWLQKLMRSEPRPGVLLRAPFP
Sequence of Tissue Factor-Factor VIIa (P08709 61-212 partner limits assumed): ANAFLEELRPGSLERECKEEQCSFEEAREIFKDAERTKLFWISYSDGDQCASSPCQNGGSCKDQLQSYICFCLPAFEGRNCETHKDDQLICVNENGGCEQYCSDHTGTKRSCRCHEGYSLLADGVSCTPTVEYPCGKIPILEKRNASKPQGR
Sequence of Tissue Factor-Factor VIIa (P13726 33-295 partner): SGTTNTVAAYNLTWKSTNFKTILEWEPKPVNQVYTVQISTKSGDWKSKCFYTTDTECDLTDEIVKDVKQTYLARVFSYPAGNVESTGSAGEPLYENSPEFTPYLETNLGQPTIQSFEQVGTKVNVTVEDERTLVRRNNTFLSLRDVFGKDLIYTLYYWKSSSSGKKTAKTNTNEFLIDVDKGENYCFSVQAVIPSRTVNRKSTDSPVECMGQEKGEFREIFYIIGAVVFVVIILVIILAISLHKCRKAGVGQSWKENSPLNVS
T2 sequence (P03952 20-638): as the sequence (P03952 20-638) above
T3 sequence (P14272 20-638): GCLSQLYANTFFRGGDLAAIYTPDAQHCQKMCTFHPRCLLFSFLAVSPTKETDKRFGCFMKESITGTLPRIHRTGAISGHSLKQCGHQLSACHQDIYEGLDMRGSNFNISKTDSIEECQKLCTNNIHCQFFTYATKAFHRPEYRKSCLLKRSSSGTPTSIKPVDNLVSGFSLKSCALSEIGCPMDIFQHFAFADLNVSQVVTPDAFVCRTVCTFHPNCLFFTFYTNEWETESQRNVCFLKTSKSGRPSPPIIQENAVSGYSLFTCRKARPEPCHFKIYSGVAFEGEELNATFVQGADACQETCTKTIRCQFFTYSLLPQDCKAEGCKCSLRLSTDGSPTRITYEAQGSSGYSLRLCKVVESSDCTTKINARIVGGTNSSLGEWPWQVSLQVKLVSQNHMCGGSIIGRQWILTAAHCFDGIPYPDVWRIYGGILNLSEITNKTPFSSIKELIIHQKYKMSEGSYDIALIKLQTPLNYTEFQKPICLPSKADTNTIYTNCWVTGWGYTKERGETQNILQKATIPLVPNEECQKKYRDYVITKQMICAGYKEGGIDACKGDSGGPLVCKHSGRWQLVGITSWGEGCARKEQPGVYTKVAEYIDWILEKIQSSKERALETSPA

Structure (SMILES): N=C(N)c1ccc(CNC(=O)c2cnn(Cc3ccccc3)c2)cc1 [ASP-440, 1-Benzyl-1H-pyrazole-4-carboxylic acid 4-carbamimidoyl-benzylamide]
- Ki ([1]; PlasmaKallikrein): 0.1 µM
- inhibition at 1 µM ([1]; predicted inhibition at 1 μM): 91%
- inhibition at 10 µM ([1]; predicted inhibition at 10 μM): 99%
- mode of inhibition ([1]; purified human plasma kallikrein): competitive and reversible
- Ki (Factor XIIa; Factor XIIa): > 100 µM
- inhibition at 1 µM (Factor XIIa; predicted inhibition at 1 μM): 0%
- inhibition at 10 µM (Factor XIIa; predicted inhibition at 10 μM): 1%
- Ki (Factor XIa; Factor XIa): 120 µM
- inhibition at 1 µM (Factor XIa; predicted inhibition at 1 μM): 0%
- inhibition at 10 µM (Factor XIa; predicted inhibition at 10 μM): 7%
- Ki (Factor IXa; Factor IXa): > 100 µM
- inhibition at 1 µM (Factor IXa; predicted inhibition at 1 μM): 0%
- inhibition at 10 µM (Factor IXa; predicted inhibition at 10 μM): 0%
- Ki ([2]; Tissue Factor-Factor VIIa): 160 µM
- inhibition at 1 µM ([2]; predicted inhibition at 1 μM): 0%
- inhibition at 10 µM ([2]; predicted inhibition at 10 μM): 6%
- Ki (Factor Xa; Factor Xa): 85 µM
- inhibition at 1 µM (Factor Xa; predicted inhibition at 1 μM): 0%
- inhibition at 10 µM (Factor Xa; predicted inhibition at 10 μM): 11%
- Ki (Thrombin; Thrombin): 110 µM
- inhibition at 1 µM (Thrombin; predicted inhibition at 1 μM): 1%
- inhibition at 10 µM (Thrombin; predicted inhibition at 10 μM): 9%
- Ki (Plasmin; Plasmin): 16 µM
- inhibition at 1 µM (Plasmin; predicted inhibition at 1 μM): 6%
- inhibition at 10 µM (Plasmin; predicted inhibition at 10 μM): 38%
- Ki ([3]; Porcine Pancreatic Kallikrein): > 100 µM
- inhibition at 1 µM ([3]; predicted inhibition at 1 μM): 0%
- inhibition at 10 µM ([3]; predicted inhibition at 10 μM): 0%
- Ki [4]: 0.2 µM
- Ki [5]: 0.4 µM
- prolongation of coagulation time in plasma [6]: ~50%
- effect on coagulation time [7]: without measurable effect
- RVP [8]: normal levels of RVP
- RVP [9]: normal levels of RVP
- effect of kallikrein on ERK phosphorylation (astrocytes [10]): blocked
- plasma kallikrein binding to astrocytes (astrocytes [11]): blocked
- hematoma area (blood-induced hematoma): reduced hematoma area in diabetic rats to a level comparable to that observed in non-diabetic controls
- hematoma response [12]: decreased
- reduction of cerebral vascular permeability ([13]; 3 days pretreatment via subcutaneous osmotic pump, MCAO for 2 hrs): about 50%
- decrease of infarct area ([13]; treatment 3 days prior to MCAO, 24 hours of permanent occlusion): about 40%
